# US12318365B2, “Inhibition of dipeptide repeat proteins” (ALS Therapy Development Institute, priority 2019, dated 2025)
# No end group written: not given here.
# Key:
# NSC-34 cells [1] = assay: Caspase-3 assay (apoptotic activity) in NSC-34 cells; format: cell-based; details: DRP 0.01-3 μM, 24 h; compared to DMSO-treated controls
# Source text: Caspase-3/CPP32 Assay: The caspase-3 assay is a fluorometric assay that measures apoptotic cell death. Apoptosis is a form of “programmed” cell death, in which a certain family of proteins inside the cell triggers a cascade of chemical reactions that result in the cell killing itself. One family of proteins involved in this process is the caspase protein family. Of the caspase proteins, caspase-2, 8, 9, and 10 are known as “initiators,” those that trigger the death cascade, and caspase-3, 6, and 7 are known as “executioners,” which carry out the actual killing of the cell. In a caspase-3 assay, cells treated with test compounds are lysed, and a substrate known as DEVD-AFC is added to the lysate. If active caspase-3 enzyme is present in the lysate, it will cleave AFC from the DEVD-AFC substrate, resulting in a fluorescent signal that can be quantified using a fluorescence microtiter plate reader. Thus, the apoptotic activity of cells treated with test compounds can be quantified. Greater fluorescence readings correspond to more apoptotic cell death.
# Cells were plated in culture medium in 2 96-well plates at a density of 3.7×10^4 cells per well, and incubated overnight at 37° C., 5% CO2. The following day, immediately prior to addition of test compounds, existing culture medium was removed and replaced with staggered volumes of culture medium as in Example 1. A 10 mM stock of MS023 was thawed to room temperature and diluted as in Example 1. A 10 mM stock of GR15 (SEQ ID NO: 1) and a 10 mM stock of PR15 (SEQ ID NO: 2) were equilibrated to room temperature and diluted in warm culture medium to achieve a final concentration of 300 nM in wells.
# The following conditions were plated in triplicate. Samples were surrounded by border wells on the outside of the plate filled with sterile Phosphate-buffered saline to prevent evaporation of volume in experimental wells during incubation; • Background (Culture medium only) • Untreated/“Cells Only” (Cells in culture medium) • DMSO Control (Cells treated only with the amount of DMSO that GR- and PR-treated cells were exposed to) • GR Only (Cells treated only with 300 nM GR15) (SEQ ID NO: 1) • Cells treated with […] GR15 (SEQ ID NO: 1) and one of the following doses of MS023: 60 μM, 30 μM, 10 μM, 3 μM, 1 μM. • PR Only (Cells treated only with 300 nM PR15) (SEQ ID NO: 2) • Cells treated with 300 nM PR15 (SEQ ID NO: 2) and one of the following doses of MS023: 60 μM, 30 μM, 10 μM, 3 μM, 1 μM. • Cells treated with only one of the following doses of MS023: 60 μM, 30 μM, 10 μM, 3 μM, 1 μM. • Positive controls (Cells treated with either 5 or 16 μM PAC-1 Caspase-3 activator)
# Plates were incubated for 24 h at 37° C., 5% CO2. Cells were tested and data were analyzed using the procedure detailed in Caspase-3 assay kit instructions.
# Cells were plated in culture medium in 2 96-well plates at a density of 3.7×10^4 cells per well, and incubated overnight at 37° C., 5% CO2. The following day, immediately prior to addition of test compounds, existing culture medium was removed and replaced with staggered volumes of culture medium as in Example 1. A 10 mM stock of MS023 was thawed to room temperature and diluted in warm culture medium to achieve final concentrations of 3, 1, 0.3, 0.1, 0.03, and 0.01 μM in plate. A 10 mM stock of GR15 (SEQ ID NO: 1) and a 10 mM stock of PR15 (SEQ ID NO: 2) were equilibrated to room temperature and diluted in warm culture medium to achieve a final concentration of 3 μM in wells.
# The following conditions were plated in triplicate. […]
# NSC-34 cells [2] = assay: BrdU ELISA (proliferation) in NSC-34 cells; format: cell-based, Mouse; details: DRP 0.01-3 μM, 24 h; compared to DMSO-treated controls
# Procedure: BrdU ELISA: The BrdU ELISA is an ELISA detecting cell proliferation activity. BrdU is a pyrimidine analog that, when inside the cell, can be incorporated instead of thymidine into newly synthesized strands of DNA. Just as is indicated by thymidine incorporation into DNA, BrdU incorporation into cell DNA indicates DNA synthesis activity, which is required for cell proliferation. In the BrdU ELISA, cells are treated with test compounds as well as BrdU reagent, and then incubated for 24 hours before testing. During testing, an anti-BrdU antibody detects the incorporation of BrdU into cell DNA that occurred over the 24-hour period, as a surrogate for cell proliferation activity. This anti-BrdU antibody is then labelled with a secondary antibody tagged with a colored substrate, which can be quantified spectrophotometrically. Greater absorbance readings correspond to more cell proliferation activity.
# Cells were plated in culture medium in 2 96-well plates at a density of 3.7×10^4 cells per well, and incubated overnight at 37° C., 5% CO2.
# The following conditions were plated in triplicate.
# Plates were incubated for 24 h at 37° C., 5% CO2. Cells were tested and data were analyzed using the procedure detailed in BrdU ELISA kit instructions.
# Cells were plated in culture medium in 2 96-well plates at a density of 5×10^4 cells per well, and incubated overnight at 37° C., 5% CO2. […] 10 μL of each concentration would be added to 100 μL base media in plate to achieve final concentrations of 3, 1, 0.3, 0.1, 0.03, and 0.01 μM DRP.
# The following conditions were plated in triplicate. Samples were surrounded by border wells on the outside of the plate filled with sterile Phosphate-buffered saline to prevent evaporation of volume in experimental wells during incubation; • Culture medium only • Background (Cells only in culture medium, without BrdU reagent) • Untreated (Cells only in culture medium, with BrdU reagent) • DMSO Controls (Cells treated with BrdU reagent and the amount of DMSO that DRP-treated cells were exposed to at each concentration) • i. The DMSO controls tested were as follows, corresponding to DRP doses starting at the highest (3 μM to the lowest 0.01 μM), and were diluted in culture medium: • 1. 0.03% DMSO • 2. 0.01% DMSO • 3. 0.003% DMSO • 4. 0.001% DMSO • 5. 0.0003% DMSO • 6.
Sequence,DRP-induced apoptotic activity (NSC-34 cells [1]),effect of DRP on proliferation activity (NSC-34 cells [2])
PAPAPAPAPAPAPAPAPAPAPAPAPAPAPA [PA15],producing less robust levels of apoptotic activity,did not significantly impact proliferation activity
GPGPGPGPGPGPGPGPGPGPGPGPGPGPGP [GP15],producing less robust levels of apoptotic activity,did not significantly impact proliferation activity
